Measurements as given in patent publication US20020165136A1, “MHC peptides and methods of use” (Thomas Jefferson University, priority 1996, published 2002).
“Also recorded” adds a separate entry of the source.

Key:
C6 glioblastoma cells = assay type: in vivo, rat; design: dose or concentration left out as unconfirmed; conditions: C6 cells pre-treated 24 hours in serum-free medium
C6 cells [1] = experiment: In vivo apoptosis assay: peptide-pretreated C6 cells in a diffusion chamber implanted s.c. in rats; design: species or system rat; conditions: for Percent Recovery: 24 hours in diffusion chamber
Method: (§1) The test for apoptosis in vivo was based on the use of the diffusion chamber described in detail by Resnicoff, M., et al., Cancer Res. 55: 2463-2469 (1995). According to this method, the cells are placed in a diffusion chamber that allows the passage of nutrients, antigens, antibodies, etc., but not of intact cells. The sterilized chamber is loaded with cells and then inserted into the subcutaneous tissue of rats or mice; after 24 hours, (or at other times, depending on the experiment) the chamber is removed and the number of cells in the chamber is determined with a hemocytometer, and expressed as a percentage of the original inoculum. The cells are also stained with trypan blue for viability; in the experience of the inventors, surviving cells are >95% viable.
(§2) For in vivo effects, 5×10^5 cells (C6 and CaOV-3 were both used for these studies) were placed in diffusion chambers and implanted into the s.c. tissue of the animals. Once the skin was sutured, the peptides were injected s.c. next to the chambers at the indicated concentrations in a final volume of 0.2 ml. Twenty-four hours later, the chambers were removed from the animals and the cells were quantitatively recovered.
(from gp100), involved in regression of human melanoma (Kawakami et al. 1994); 2) […], recognized by melanoma-specific human CTL lines (Cox et al, 1994); and 3) […], derived from connexin 37, that induces CTL responses against murine lung carcinoma (Mandelboim, et al., 1994). For each of these peptides, a control peptide having the same amino acid composition, but in scrambled order (controls), was also tested. C6 cells were preincubated with the peptides at a concentration of 10^−5M and transferred to the diffusion chamber (see Methods and Materials). Cell number was determined after 24 hours in the diffusion chamber transplanted into the subcutaneous tissue of rats.
Two of the three peptides were selected for further studies of the effects of mutations on the ability to induce apoptosis. Several point mutations were introduced into the peptide […]. […] Mutations at tyrosine in position 1, or the two prolines in positions 4 and 6, effectively inactivated peptide no. 2. An exception to this observation was seen when the prolines were replaced by an N-methyl amino acid. Mutations at E3 or T8 had little effect, but when both residues were mutated, recovery increased to 77%.
In order to determine the minimum concentration of these peptides that still would induce apoptosis in vivo, C6 cells were preincubated with different concentrations of the […] and D-amino acid […] peptides and recovery of viable cells was determined after 24 hours in the diffusion chamber.

C6 cells [2] = experiment: Protection from subsequent challenge with wild type C6 cells; assay type: in vivo, rat
Method: Synthetic peptide sequences listed above were tested at 5×10^−M on C6 cells. Tests for apoptosis and for protection from subsequent challenge with C6 cells are described herein. Point mutations are shown in bold characters.

[3] = test system: CaOV3 cells (human ovarian carcinoma cells); experiment: Diffusion chamber assay, CaOV3 cells in mice, peptide injected s.c. next to chamber; assay type: in vivo, mouse; conditions: Balb/c mice, 0.2 ml of 0.05 mM peptide s.c. next to chamber, 24 hours
Method: as §1, §2
Human ovarian carcinoma cells CaOV3 (Resnicoff, et al. (1993)) were loaded into a diffusion chamber, and the chamber was inserted into the subcutaneous tissue of mice. The animals were then injected, also subcutaneously next to the chamber, with 0.2 ml of a 0.05 mM solution of four different peptides, and the number of cells was determined 24 hours later. […] The control peptide had no effect, and the number of cells more than doubled. CaOV3 cells also undergo apoptosis, as determined by FACS analysis.
CaOV3 cells (human ovarian carcinoma cells, 5×10^5 cells) were placed without any previous treatment into diffusion chambers that were then implanted into the subcutaneous tissue of Balb/c mice. Animals were then injected subcutaneously next to the chambers either with 0.2 ml of a 0.05 mM solution of one of the three test peptides or with 0.2 ml of a 0.05 mM solution of the control peptide.

C6 cells [4] = experiment: Tumorigenesis of C6 cells in nude mice; assay type: in vivo; conditions: for Expected Delay: calculated from % cells recovered; for Palpable Tumors: s.c. in nude mice
Method: C6 cells pre-incubated with various concentrations (10^−12, 10^−10, 10^−8, and 10^−5 M) of the peptide YLRPGPVTA were injected simultaneously into nude mice and the time of appearance of subcutaneous tumors was determined. In parallel experiments, the percentage of cells killed in the diffusion chamber assay was determined. From the percentage of cells killed, the expected delay in the appearance of tumors in mice was calculated as described previously (Resnicoff, et al., Cancer Res. 55:3739 (1995)). […] The time of appearance of tumors is slightly more delayed than expected from the percentage of cells killed in 24 hours in the diffusion chamber assay, a phenomenon previously observed also with antisense oligodeoxynucleotides to the IGF-IR RNA (Resnicoff, et al., Cancer Res. 55:3739 (1995)).
A similar inhibition of tumorigenesis was observed using the D-amino acid peptide LRLTATGDLL. In this case, the peptide (all D-aa, sequence from Kawakami, et al. (1994)) was injected s.c. into nude mice (0.1 ml, at the indicated concentrations), simultaneously with C6 cells (10^5 cells in 0.1 ml) and next to them. The animals were followed for tumor development. The results were as follows: For C6 cells without peptide injection, the tumors appeared after 4 days; for a peptide injection at 10^−10 to 10^−12 M, tumors appeared after 11 days.
C6 cells were incubated with the synthetic peptide at the indicated final concentrations for 24 hours in serum-free medium before injection into the subcutaneous tissue of seven week-old male Dalb/c nude mice. Percentage recovery was determined using the diffusion chamber assay as described herein. Expected Delay is the number of days after injection before the tumors should become palpable, based on survival in vivo estimated by percentage of cells recovered. […] Three nude mice were used in each experimental condition.

C6/p35 cells = experiment: Diffusion chamber apoptosis test on C6 cells expressing baculovirus p35; assay type: in vivo, rat; conditions: untreated versus incubated with peptide
Method: In addition, one of the common pathways of apoptotic injury is through the ICE proteins ([…] (1996)). The activation of ICE and ICE-like proteins is inhibited by the p35 protein of baculovirus (Clem and Miller (1994)), which can also be functional in mammalian cells (Rabizadeh, et al. (1993). To determine whether the synthetic peptides caused apoptosis through the ICE pathway, a plasmid expressing the p35 protein was stably introduced into C6 cells. C6 and C6/p35 cells were then tested for apoptosis in the diffusion chambers, using the synthetic peptide […]. 2 is a composite picture showing the expression of p35 in the various cell lines, and, below each lane, the percentage of cells recovered from the diffusion chamber.

For “GILGFVPTL [Peptide M158-66, synthetic peptide corresponding to one derived from influenza virus]”, the “Recovery (%)” value (C6 glioblastoma cells) was 23.4%.

For YLRPGPVTA [point mutant of …], the “% Recovery” value (C6 cells [1]; C6 cells incubated with 10^−5 M peptide 24 hours in serum-free medium, diffusion chamber) was 0.3%, the “% Recovery” value (C6 cells [1]; C6 cells incubated with 10^−8 M peptide 24 hours in serum-free medium, diffusion chamber) was 2.1% and the “% Recovery” value (C6 cells [1]; C6 cells incubated with 10^−10 M peptide 24 hours in serum-free medium, diffusion chamber) was 4.5%. For the same sequence, the “% Recovery” value (C6 cells [1]; C6 cells incubated with 10^−12 M peptide 24 hours in serum-free medium, diffusion chamber) was 18%, the “Percent Recovery” value (C6 cells [1]; C6 cells, peptide 10^−5 M) was 0.3% and the “Percent Recovery” value (C6 cells [1]; C6 cells, peptide 10^−8 M) was 2.1%. The “Percent Recovery” value (C6 cells [1]; C6 cells, peptide 10^−10 M) was 4.5%, the “Percent Recovery” value (C6 cells [1]; C6 cells, peptide 10^−12 M) was 18% and the “% Recovery (24 hs)” value (C6 cells [1]; C6 cells, peptide at 5×10^−M, 24 hs in diffusion chamber, % of original inoculum) was 3.5%. The “apoptosis in C6 cells and C6 cells stably transfected with the empty vector” value (C6 cells [1]; diffusion chamber, treated with peptide) was “underwent apoptosis”, the “Protection from wild type cell challenge” value (C6 cells [2]) was “yes” and the “Percent Recovery” value [3] was 3.0%. The “Expected Delay” value (C6 cells [4]; 10^−5 M peptide) was 14 days, the “Expected Delay” value (C6 cells [4]; 10^−8 M peptide) was 11 days and the “Expected Delay” value (C6 cells [4]; 10^−10 M peptide) was 10 days. For the same sequence, the “Expected Delay” value (C6 cells [4]; 10^−12 M peptide, days before tumors should become palpable) was 8 days, the “Palpable Tumors” value (C6 cells [4]; C6 cells pre-incubated with 10^−5 M peptide) was 21 days and the “Palpable Tumors” value (C6 cells [4]; C6 cells pre-incubated with 10^−8 M peptide) was 15 days. For the same sequence, the “Palpable Tumors” value (C6 cells [4]; C6 cells pre-incubated with 10^−10 M peptide) was 14 days, the “Palpable Tumors” value (C6 cells [4]; C6 cells pre-incubated with 10^−12 M peptide, days after injection) was 11 days and the “inhibition of tumorigenesis (in words)” value (C6 cells [4]; C6 cells pre-treated with peptide at 10^−12 to 10^−5 M, nude mice) was “concentration-dependent inhibition of tumorigenesis”. For the same sequence, the “growth of clones expressing the p35 protein in the diffusion chamber” value (C6/p35 cells) was “grew in the diffusion chamber equally well whether untreated or incubated with the synthetic peptide; also recorded: grew in the diffusion chamber equally well, whether untreated or incubated with the synthetic peptide”.
